{"source": "paper PMC5077990", "about": "“P53 activation inhibits all types of hematopoietic progenitors and all stages of megakaryopoiesis” (Oncotarget, 2016)", "key": {"megakaryoblasts / MKs": {"test_system": "megakaryoblasts / MKs", "experiment": "Apoptosis of megakaryoblasts/MKs, Annexin V flow cytometry", "assay_type": "cell-based, human", "settings": "day 6-megakaryoblasts", "method": "(§1) We also explored the effects of p53 stabilization at a later stage of megakaryocytic differentiation. […] Day 7-MKs were treated with 5 μM Nutlin 3a for 24 or 48 hours, which led to an increase in p53, p21, BAX, BCL2 and BCL-XL levels, confirming a functional p53 activity (Figure 6A). […] Similar results were found with day 6-megakaryoblasts treated with two doses of SAR405838 for 72 hours (Figure 6D/6E) without any major effect on the percentage of CD41^+ cells (Figure 6F). […] As shown in Figure 6D/6E, at the dose of 0.5 μM the SAR405838 induced a 50% decreased in the number of viable cells while the apoptotic cells reached 50% of the total cells. We checked if the effect of SAR405838 on MKs could be reverted by the addition of high TPO doses. CD34^+ progenitors were cultured in serum-free medium supplemented with SCF and low dose of TPO (1 ng/mL) for 6 days. Day 6-megakaryoblasts were then treated with 1.5 μM of SAR405838 for 48 hours and various doses of TPO.\n(§2) In parallel, the expression of P53, BAK, BCL2L1, NOXA, PUMA, BAX, P21 and P53 were quantified by qRT-PCR related to HPRT. C. […] (n=3). […]\nApoptosis was measured by Annexin V-FITC detection kit (BD Pharmigen, San Diego, CA) and analyzed by flow cytometry on a LSRII (Becton Dickinson Mountain View, CA)."}, "[1]": {"test_system": "p53 pathway in megakaryocytes (MKs)", "experiment": "p53 pathway proteins and transcripts in MKs (western-blot, qRT-PCR)", "assay_type": "cell-based, human", "settings": "day 11-MKs, 1 μM, 24 hours (legend: 5 μM), compared to 1 μM MI-219 or untreated control", "method": "as §1, §2\n(§3) PCRs were carried out in the ABI Prism GeneAmp 5700 (Perkin-Elmer) using the Power SYBR-Green PCR Master Mix (ABI) containing the specific primers. The expression levels of all genes were calculated relatively to HPRT or to PPIA housekeeping gene.\nProteins were quantified by Image J software."}, "[2]": {"test_system": "CD34+ progenitors cultured with SCF and TPO", "experiment": "Viable CD34+ progenitors at early stage of megakaryocytic differentiation, Trypan blue exclusion", "assay_type": "cell-based", "settings": "Homo sapiens, read-out: IC50, decrease in number of viable cells", "method": "We explored the effect of p53 stabilization on the viability of CD34^+progenitors at early stages of megakaryocytic differentiation. CD34^+ progenitors were cultured for one day in serum-free medium supplemented with SCF and TPO and treated with SAR405838 or MI-219. After a 48 or 72 hour incubation, cells were counted by Trypan blue exclusion and apoptotic cells were quantified by flow cytometry using Annexin V / Propidium iodide labeling.\nA. Cells were counted by Trypan blue exclusion."}, "[3]": {"test_system": "p53 target genes (MDM2, PUMA, P21) in CD34+ cells", "experiment": "qRT-PCR of p53 target genes in CD34+ cells", "assay_type": "cell-based, human", "settings": "CD34+ cells cultured one day with TPO and SCF; doses 0.75 M, 1.5 μM, 2.5 μM and 5 μM", "method": "To investigate the impact of p53 stabilization on hematopoietic progenitors, CD34^+ cells were cultured for one day in serum-free medium with TPO and SCF in the presence of the MDM2 antagonist SAR405838 before quantifying the p53 target genes by qRT-PCR.\nFigure 1 Effects of SAR405838 on CD34+ progenitors A. Dose-effect of SAR405838 on p53 target genes by qRT-PCR. CD34^+ cells were treated or not with SAR405838 at various doses ([…], 1.5 μM, 2.5 μM and 5 μM). The expression of P53 and its targets (MDM2, PUMA, P21) were quantified by qRT-PCR related to PPIA. Results are the mean ± SEM of 2 independent experiments in duplicate. B, C, D. Cells were seeded in methylcellulose (B, C) or in fibrin clot (D) in the presence of MI-219 or SAR405838 to assay the number of BFU-E, CFU-GM and CFU-MK progenitors. Results are presented as percentage compared to control. Results represent the mean of 3 experiments for BFU-E and CFU-GM and 3 experiments for CFU-MK made in triplicate. * represents statistical significance using student t test (* P<0.05; **P<0.01; ***P<0.001).\nas §3"}}, "note": "Where two headings read alike, the source gives them in different places."}
{"smiles": "CC(C)(C)C[C@@H]1N[C@@H](C(=O)N[C@H]2CC[C@H](O)CC2)[C@H](c2cccc(Cl)c2F)[C@]12C(=O)Nc1cc(Cl)ccc12", "note": "[SAR405838]", "values": [{"measurement": "apoptotic cells, of the total cells", "setting": "megakaryoblasts / MKs; 0.5 μM, 72 hours", "result": 50, "unit": "%"}, {"measurement": "reversal of compound-mediated MK apoptosis by increasing doses of TPO", "setting": "megakaryoblasts / MKs; 1.5 μM for 48 hours, various doses of TPO", "result": "unable to revert"}, {"measurement": "P21, BAX, PUMA and BCL2L1 transcripts (qRT-PCR related to HPRT)", "setting": "[1]", "result": "significant increase"}, {"measurement": "IC50", "setting": "[2]; 48 hours of treatment", "result": "~1500", "unit": "nM"}, {"measurement": "IC50", "setting": "[2]; 72 hours of treatment", "result": "~1500", "unit": "nM"}, {"measurement": "MDM2, PUMA and P21 expression (qRT-PCR related to PPIA)", "setting": "[3]", "result": "dose-dependent effect"}]}
